Test results: article PMC6906472, “Purification and biological activity of natural variants synthesized by tridecaptin M gene cluster and in vitro drug-kinetics of this antibiotic class” (Scientific Reports, 2019)
Square brackets hold non-standard residues; d marks the D form. Peptide text beside a SMILES is read from it. * marks the point of attachment. X2 = CC[C@H](C)CCCC[C@@H](O)CC(=O)*; d(aIle) = CC[C@H](C)[C@@H](N)C(=O)O; X1 = CC[C@H](C)CCCCC(=O)*; dDab = NCC[C@@H](N)C(=O)O; Dab = NCC[C@H](N)C(=O)O

Legend:
[1] = Order of elution in RP-HPLC (hydrophobicity); type: physicochemical; conditions: C18, acetonitrile/water with 0.075% TFA, in words
Description: The strain M-152 was inoculated in 700 ml MHB in 2 L Erlenmeyer flask, and the crude fermentation extract preparation, ion-exchange chromatography and the first step of RP-HPLC were performed as described for tridecaptin M[11]. The peaks obtained in HPLC were assayed against K. pneumoniae using agar well diffusion method. The active peaks (Fig. 1) were purified by the second round of HPLC under different conditions, optimized for each compound. The mobile phase system for all the peaks consisted of solvent A as 20% acetonitrile in Milli-Q and solvent B as 100% acetonitrile. Both solvents contained 0.075% TFA. C18 column (Waters, XBridge, 10 mm × 250 mm, 5 µm, 130 Å) was used to purify the compounds. Following gradient was used for the resolution of different components; for P1, 8% B to 26% B in 30 min, for P3, 8% B to 25% B in 23 min, for P4, 8% B to 23% B in 22 min, for P5, 3% B to 21.5% B in 24 min, for P6, 10% B to 25% B in 25 min, for P7, 8% B to 28% B in 25 min, for P8, 8% B to 26% B in 23 min, for P10, 10% B to 28% B in 30 min, for P11, 10% B to 28% B in 31 min. In two to three min, the gradient was reversed to initial column conditions and was equilibrated for five to six min, before the next injection. Multiple injections were given to generate a sufficient quantity of each compound for further studies.

[2] = system: outer membrane of A. baumannii ATCC 19606, P. aeruginosa ATCC 27853, K. pneumoniae ATCC 700603, P3R; assay: Outer membrane permeabilization (NPN assay); type: cell-based; conditions: peptide 4 µg/ml and 8 µg/ml; triplicate, three biological repeats
Description: For outer membrane permeabilization study, NPN dye was used as described previously. A. baumannii ATCC 19606, P. aeruginosa ATCC 27853, K. pneumoniae ATCC 700603 were treated with two different concentrations of the peptide (4 µg/ml and 8 µg/ml). To check alteration in the cytoplasmic membrane potential, DiSC3(5) probe was used[11].

[3] = system: K. pneumoniae AH-16 (Col-R)
Description: (§1) MICs for all the compounds were determined by broth microdilution assay, according to CLSI guidelines[16] as described previously. Haemolysis experiments were performed with fresh rabbit RBCs[11]. All the compounds were tested at a concentration of 128 µg/ml. To obtain rabbit blood, the experiments and the protocols were in accordance with the ethical standards of the Institutional Animal Ethics Committee (IAEC) of the Institute of Microbial Technology approved (Approval no. IAEC/17/11) by Committee for the Purpose of Control And Supervision of Experiments on Animals (CPCSEA, Government of India).

[4] = system: P. aeruginosa ATCC 27853; conditions: ATCC 27853
Description: as §1

[5] = system: E. coli CF-23 (mcr-1)
Description: as §1

[6] = system: Proteus mirabilis MTCC 1429
Description: as §1

[7] = system: K. pneumoniae ATCC 700603
Description: as §1

[8] = system: Serratia marcescens MTCC 97
Description: as §1

[9] = system: K. pneumoniae AH-3 (Col-R)
Description: as §1

[10] = system: K. pneumoniae GMCH 13; assay: microbe, parasite or virus in culture
Description: (§2) Acinetobacter baumannii ATCC 19606, Pseudomonas aeruginosa ATCC 27853, K. pneumoniae ATCC 700603, K. pneumoniae P3R, K. pneumoniae GMCH 13 and K. pneumoniae GMCH 15 were grown in CA-MHB and adjusted to ~4 × 10^5 CFU/ml. 100 µl of fresh CA-MHB containing carbonyl cyanide m-chlorophenyl hydrazine (CCCP) or phenylalanine-arginine beta-naphthylamide (PAβN) (at a final concentration of their 1/4th of MIC or 1/8th of MIC) was added to the wells of a 96-well flat bottom plate. Tridecaptin M was diluted in a 2-fold manner. 100 µl of culture was added and the plates were incubated for 16 to 18 h at 37 °C and observed for MICs. The fold modulation in MICs of tridecaptin M was calculated by comparing the results in the presence or absence of CCCP and PAβN.

[11] = system: A. baumannii ATCC 19606; assay: microbe, parasite or virus in culture
Description: as §2

[12] = system: K. pneumoniae GMCH 15; assay: microbe, parasite or virus in culture
Description: as §2

[13] = system: K. pneumoniae P3R (M1-R); conditions: broth microdilution, CLSI guidelines; M1-resistant mutant of ATCC 700603
Description: as §1

[14] = system: K. pneumoniae GMCH 13
Description: as §1

[15] = system: A. baumannii ATCC 19606; conditions: ATCC 19606
Description: as §1

[16] = system: K. pneumoniae GMCH 15
Description: as §1

[17] = system: P. aeruginosa ATCC 27853; assay: microbe, parasite or virus in culture; conditions: ATCC 27853
Description: as §2

[18] = system: K. pneumoniae P3R (Tri-M Resistant); assay: microbe, parasite or virus in culture
Description: as §2

[19] = ~4 × 10^5 CFU/ml, CA-MHB, 16 to 18 h, 37 °C

Compound: CC[C@H](C)CCCC[C@@H](O)CC(=O)N[C@@H](C(=O)N[C@H](CCN)C(=O)NCC(=O)N[C@H](CO)C(=O)N[C@H](Cc1ccccc1)C(=O)N[C@@H](CO)C(=O)N[C@@H](CCN)C(=O)N[C@H](CCN)C(=O)N[C@@H](Cc1ccccc1)C(=O)N[C@@H](CCC(=O)O)C(=O)N[C@H](C(=O)N[C@@H](C(=O)N[C@@H](CO)C(=O)O)[C@@H](C)CC)[C@@H](C)CC)C(C)C [M11] (X2-[dV][dDab]G[dS][dF]S[Dab][dDab]FEI[d(aIle)]S-OH; N-terminus and C-terminus assumed)
- hydrophobicity by order of elution in HPLC [1]: greater hydrophobicity
- NPN uptake [2]: greater uptake of NPN, compared to M1
- Peptide MIC [3]: 1 mg/L
- Peptide MIC [4]: 8 mg/L
- Peptide MIC [5]: 1 mg/L
- Peptide MIC [6]: 4 mg/L
- Peptide MIC [7]: 2 mg/L
- Peptide MIC [8]: 4 mg/L
- Peptide MIC [9]: 1 mg/L
- MIC of peptide in the presence of CCCP ([10]; GMCH 13): 2 mg/L
- Intrinsic Activity; MIC [10, 19]: 4 mg/L
- fold modulation (reduction) of MIC in the presence of CCCP ([11]; MIC with versus without CCCP): four
- Intrinsic Activity; MIC [11, 19]: 4 mg/L
- MIC of peptide in the presence of CCCP ([12]; CCCP at 1/4th MIC): 2 mg/L
- MIC of peptide in the presence of CCCP ([12]; CCCP at 1/8th MIC): 2 mg/L
- Intrinsic Activity; MIC [12, 19]: 2 mg/L

Compound: CC[C@H](C)CCCCC(=O)NCC(=O)N[C@H](CCN)C(=O)NCC(=O)N[C@H](CO)C(=O)N[C@H](Cc1c[nH]c2ccccc12)C(=O)N[C@@H](CO)C(=O)N[C@@H](CCN)C(=O)N[C@H](CCN)C(=O)N[C@H](C(=O)N[C@@H](CCC(=O)O)C(=O)N[C@H](C(=O)N[C@@H](C(=O)N[C@@H](CO)C(=O)O)[C@@H](C)CC)[C@@H](C)CC)[C@@H](C)CC [M1, tridecaptin M] (X1-G[dDab]G[dS][dW]S[Dab][dDab]IEI[d(aIle)]S-OH)
- Peptide MIC [13]: 64 mg/L
- Peptide MIC [14]: 8 mg/L
- Peptide MIC [3]: 4 mg/L
- Peptide MIC [4]: >128 mg/L
- Peptide MIC [5]: 4 mg/L
- Peptide MIC [6]: >16 mg/L
- Peptide MIC [7]: 4 mg/L
- Peptide MIC [15]: 64 mg/L
- Peptide MIC [8]: 8 mg/L
- Peptide MIC [16]: 16 mg/L
- Peptide MIC [9]: 4 mg/L
- FICI ([10]; GMCH 13): 0.75
- Intrinsic Activity; MIC ([10]; GMCH 13): 8 mg/L
- MIC of peptide in the presence of PAβN ([10]; GMCH 13): 8 mg/L
- Intrinsic Activity; MIC [17]: 256 mg/L
- MIC of peptide in the presence of CCCP [17]: 256 mg/L
- MIC of peptide in the presence of PAβN [17]: 256 mg/L
- Intrinsic Activity; MIC ([11]; ATCC 19606): 64 mg/L
- MIC of peptide in the presence of PAβN ([11]; ATCC 19606): 64 mg/L
- MIC of peptide in the presence of CCCP ([18]; CCCP at 1/4th MIC): 64 mg/L
- MIC of peptide in the presence of CCCP ([18]; CCCP at 1/8th MIC): 64 mg/L
- MIC of peptide in the presence of PAβN ([18]; PAβN at 1/4th MIC): 64 mg/L
- MIC of peptide in the presence of PAβN ([18]; PAβN at 1/8th MIC): 64 mg/L
- Intrinsic Activity; MIC [18, 19]: 64 mg/L
- Intrinsic Activity; MIC ([12]; GMCH 15): 16 mg/L
- MIC of peptide in the presence of PAβN ([12]; GMCH 15): 16 mg/L
